# Measurements published in ChEMBL document CHEMBL2401670, “Synthesis and biological evaluation of rhodanine derivatives bearing a quinoline moiety as potent antimicrobial agents” (Bioorg Med Chem Lett, 2013).
# System: HeLa
# Assay: Cytotoxicity against human HeLa cells after 48 hrs by MTT assay
# Format: cell-based
# Settings: not given
row,Compound,IC50
1,Cc1ccc(COc2ccc3nc(Cl)c(/C=C4\SC(=S)N([C@@H](CC(C)C)C(=O)O)C4=O)cc3c2)cc1,8.84 µg/mL
2,CCC(C)[C@@H](C(=O)O)N1C(=O)/C(=C/c2cc3cc(OCc4ccc(C)cc4)ccc3nc2Cl)SC1=S (some centres not stated),9.09 µg/mL
3,Cc1ccc(COc2ccc3nc(Cl)c(/C=C4\SC(=S)N([C@@H](Cc5ccccc5)C(=O)O)C4=O)cc3c2)cc1,13.3 µg/mL

# System: Staphylococcus aureus
# Assay: Ratio of moxifloxacin MIC to compound MIC for quinolone-resistant Staphylococcus aureus CCARM 3519
# Format: functional
# Settings: not given
row,Compound,Ratio
1,Cc1ccc(COc2ccc3nc(Cl)c(/C=C4\SC(=S)N([C@@H](Cc5ccccc5)C(=O)O)C4=O)cc3c2)cc1,4
2,CC(C)C[C@@H](C(=O)O)N1C(=O)/C(=C/c2cc3cc(OCc4ccc(Cl)cc4)ccc3nc2Cl)SC1=S,4

# System: Staphylococcus aureus
# Assay: Ratio of moxifloxacin MIC to compound MIC for quinolone-resistant Staphylococcus aureus CCARM 3505
# Format: functional
# Settings: not given
row,Compound,Ratio
1,Cc1ccc(COc2ccc3nc(Cl)c(/C=C4\SC(=S)N([C@@H](Cc5ccccc5)C(=O)O)C4=O)cc3c2)cc1,4
2,CC(C)C[C@@H](C(=O)O)N1C(=O)/C(=C/c2cc3cc(OCc4ccc(Cl)cc4)ccc3nc2Cl)SC1=S,4

# System: Staphylococcus aureus
# Assay: Ratio of gatifloxacin MIC to compound MIC for quinolone-resistant Staphylococcus aureus CCARM 3519
# Format: functional
# Settings: not given
row,Compound,Ratio
1,Cc1ccc(COc2ccc3nc(Cl)c(/C=C4\SC(=S)N([C@@H](Cc5ccccc5)C(=O)O)C4=O)cc3c2)cc1,4
2,CC(C)C[C@@H](C(=O)O)N1C(=O)/C(=C/c2cc3cc(OCc4ccc(Cl)cc4)ccc3nc2Cl)SC1=S,4

# System: Staphylococcus aureus
# Assay: Ratio of gatifloxacin MIC to compound MIC for quinolone-resistant Staphylococcus aureus CCARM 3505
# Format: functional
# Settings: not given
row,Compound,Ratio
1,Cc1ccc(COc2ccc3nc(Cl)c(/C=C4\SC(=S)N([C@@H](Cc5ccccc5)C(=O)O)C4=O)cc3c2)cc1,4
2,CC(C)C[C@@H](C(=O)O)N1C(=O)/C(=C/c2cc3cc(OCc4ccc(Cl)cc4)ccc3nc2Cl)SC1=S,4

# System: Staphylococcus aureus
# Assay: Ratio of norfloxacin MIC to compound MIC for quinolone-resistant Staphylococcus aureus CCARM 3519
# Format: functional
# Settings: not given
row,Compound,Ratio
1,Cc1ccc(COc2ccc3nc(Cl)c(/C=C4\SC(=S)N([C@@H](Cc5ccccc5)C(=O)O)C4=O)cc3c2)cc1,4
2,CC(C)C[C@@H](C(=O)O)N1C(=O)/C(=C/c2cc3cc(OCc4ccc(Cl)cc4)ccc3nc2Cl)SC1=S,4

# System: Staphylococcus aureus
# Assay: Ratio of norfloxacin MIC to compound MIC for quinolone-resistant Staphylococcus aureus CCARM 3505
# Format: functional
# Settings: not given
row,Compound,Ratio
1,Cc1ccc(COc2ccc3nc(Cl)c(/C=C4\SC(=S)N([C@@H](Cc5ccccc5)C(=O)O)C4=O)cc3c2)cc1,4
2,CC(C)C[C@@H](C(=O)O)N1C(=O)/C(=C/c2cc3cc(OCc4ccc(Cl)cc4)ccc3nc2Cl)SC1=S,4

# System: Staphylococcus aureus
# Assay: Ratio of norfloxacin MIC to compound MIC for methicillin-resistant Staphylococcus aureus CCARM 3506
# Format: functional
# Settings: not given
row,Compound,Ratio
1,Cc1ccc(COc2ccc3nc(Cl)c(/C=C4\SC(=S)N([C@@H](Cc5ccccc5)C(=O)O)C4=O)cc3c2)cc1,4
2,CC(C)C[C@@H](C(=O)O)N1C(=O)/C(=C/c2cc3cc(OCc4ccc(Cl)cc4)ccc3nc2Cl)SC1=S,4

# System: Staphylococcus aureus
# Assay: Ratio of norfloxacin MIC to compound MIC for methicillin-resistant Staphylococcus aureus CCARM 3167
# Format: functional
# Settings: not given
row,Compound,Ratio
1,Cc1ccc(COc2ccc3nc(Cl)c(/C=C4\SC(=S)N([C@@H](Cc5ccccc5)C(=O)O)C4=O)cc3c2)cc1,4
2,CC(C)C[C@@H](C(=O)O)N1C(=O)/C(=C/c2cc3cc(OCc4ccc(Cl)cc4)ccc3nc2Cl)SC1=S,4

# System: Staphylococcus aureus
# Assay: Antibacterial activity against quinolone-resistant Staphylococcus aureus CCARM 3519 after 24 hrs by broth microdilution method
# Format: functional
# Settings: CCARM 3519, 24 h
row,Compound,MIC
1,O=C(O)[C@H](Cc1ccccc1)N1C(=O)/C(=C/c2cc3cc(OCc4ccc(F)cc4)ccc3nc2Cl)SC1=S,4 µg/mL
2,CCC(C)[C@@H](C(=O)O)N1C(=O)/C(=C/c2cc3cc(OCc4ccccc4Cl)ccc3nc2Cl)SC1=S (some centres not stated),2 µg/mL
3,Cc1ccc(COc2ccc3nc(Cl)c(/C=C4\SC(=S)N([C@@H](CC(C)C)C(=O)O)C4=O)cc3c2)cc1,1 µg/mL
4,CCC(C)[C@@H](C(=O)O)N1C(=O)/C(=C/c2cc3cc(OCc4ccc(C)cc4)ccc3nc2Cl)SC1=S (some centres not stated),2 µg/mL
5,Cc1ccc(COc2ccc3nc(Cl)c(/C=C4\SC(=S)N([C@@H](Cc5ccccc5)C(=O)O)C4=O)cc3c2)cc1,1 µg/mL
6,CC(C)C[C@@H](C(=O)O)N1C(=O)/C(=C/c2cc3cc(OCc4ccc(Cl)cc4)ccc3nc2Cl)SC1=S,1 µg/mL

# System: Staphylococcus aureus
# Assay: Antibacterial activity against quinolone-resistant Staphylococcus aureus CCARM 3505 after 24 hrs by broth microdilution method
# Format: functional
# Settings: CCARM 3505, 24 h
row,Compound,MIC
1,O=C(O)[C@H](Cc1ccccc1)N1C(=O)/C(=C/c2cc3cc(OCc4ccc(F)cc4)ccc3nc2Cl)SC1=S,2 µg/mL
2,CCC(C)[C@@H](C(=O)O)N1C(=O)/C(=C/c2cc3cc(OCc4ccccc4Cl)ccc3nc2Cl)SC1=S (some centres not stated),2 µg/mL
3,Cc1ccc(COc2ccc3nc(Cl)c(/C=C4\SC(=S)N([C@@H](CC(C)C)C(=O)O)C4=O)cc3c2)cc1,1 µg/mL
4,CCC(C)[C@@H](C(=O)O)N1C(=O)/C(=C/c2cc3cc(OCc4ccc(C)cc4)ccc3nc2Cl)SC1=S (some centres not stated),2 µg/mL
5,Cc1ccc(COc2ccc3nc(Cl)c(/C=C4\SC(=S)N([C@@H](Cc5ccccc5)C(=O)O)C4=O)cc3c2)cc1,1 µg/mL
6,CC(C)C[C@@H](C(=O)O)N1C(=O)/C(=C/c2cc3cc(OCc4ccc(Cl)cc4)ccc3nc2Cl)SC1=S,1 µg/mL

# System: Staphylococcus aureus
# Assay: Antibacterial activity against methicillin-resistant Staphylococcus aureus CCARM 3506 after 24 hrs by broth microdilution method
# Format: functional
# Settings: CCARM 3506, 24 h
row,Compound,MIC
1,O=C(O)[C@H](Cc1ccccc1)N1C(=O)/C(=C/c2cc3cc(OCc4ccc(F)cc4)ccc3nc2Cl)SC1=S,2 µg/mL
2,CCC(C)[C@@H](C(=O)O)N1C(=O)/C(=C/c2cc3cc(OCc4ccccc4Cl)ccc3nc2Cl)SC1=S (some centres not stated),1 µg/mL
3,Cc1ccc(COc2ccc3nc(Cl)c(/C=C4\SC(=S)N([C@@H](CC(C)C)C(=O)O)C4=O)cc3c2)cc1,2 µg/mL
4,CCC(C)[C@@H](C(=O)O)N1C(=O)/C(=C/c2cc3cc(OCc4ccc(C)cc4)ccc3nc2Cl)SC1=S (some centres not stated),2 µg/mL
5,Cc1ccc(COc2ccc3nc(Cl)c(/C=C4\SC(=S)N([C@@H](Cc5ccccc5)C(=O)O)C4=O)cc3c2)cc1,1 µg/mL
6,CC(C)C[C@@H](C(=O)O)N1C(=O)/C(=C/c2cc3cc(OCc4ccc(Cl)cc4)ccc3nc2Cl)SC1=S,1 µg/mL

# System: Staphylococcus aureus
# Assay: Antibacterial activity against methicillin-resistant Staphylococcus aureus CCARM 3167 after 24 hrs by broth microdilution method
# Format: functional
# Settings: CCARM 3167, 24 h
row,Compound,MIC
1,O=C(O)[C@H](Cc1ccccc1)N1C(=O)/C(=C/c2cc3cc(OCc4ccc(F)cc4)ccc3nc2Cl)SC1=S,2 µg/mL
2,CCC(C)[C@@H](C(=O)O)N1C(=O)/C(=C/c2cc3cc(OCc4ccccc4Cl)ccc3nc2Cl)SC1=S (some centres not stated),2 µg/mL
3,Cc1ccc(COc2ccc3nc(Cl)c(/C=C4\SC(=S)N([C@@H](CC(C)C)C(=O)O)C4=O)cc3c2)cc1,1 µg/mL
4,CCC(C)[C@@H](C(=O)O)N1C(=O)/C(=C/c2cc3cc(OCc4ccc(C)cc4)ccc3nc2Cl)SC1=S (some centres not stated),2 µg/mL
5,Cc1ccc(COc2ccc3nc(Cl)c(/C=C4\SC(=S)N([C@@H](Cc5ccccc5)C(=O)O)C4=O)cc3c2)cc1,1 µg/mL
6,CC(C)C[C@@H](C(=O)O)N1C(=O)/C(=C/c2cc3cc(OCc4ccc(Cl)cc4)ccc3nc2Cl)SC1=S,1 µg/mL

# System: Escherichia coli
# Assay: Antibacterial activity against Escherichia coli CCARM 1356 after 24 hrs by broth microdilution method
# Format: functional
# Settings: CCARM 1356, 24 h
row,Compound,MIC
1,O=C(O)[C@H](Cc1ccccc1)N1C(=O)/C(=C/c2cc3cc(OCc4ccc(F)cc4)ccc3nc2Cl)SC1=S,> 64 µg/mL
2,CCC(C)[C@@H](C(=O)O)N1C(=O)/C(=C/c2cc3cc(OCc4ccccc4Cl)ccc3nc2Cl)SC1=S (some centres not stated),> 64 µg/mL
3,Cc1ccc(COc2ccc3nc(Cl)c(/C=C4\SC(=S)N([C@@H](CC(C)C)C(=O)O)C4=O)cc3c2)cc1,> 64 µg/mL
4,CCC(C)[C@@H](C(=O)O)N1C(=O)/C(=C/c2cc3cc(OCc4ccc(C)cc4)ccc3nc2Cl)SC1=S (some centres not stated),> 64 µg/mL
5,Cc1ccc(COc2ccc3nc(Cl)c(/C=C4\SC(=S)N([C@@H](Cc5ccccc5)C(=O)O)C4=O)cc3c2)cc1,> 64 µg/mL
6,CC(C)C[C@@H](C(=O)O)N1C(=O)/C(=C/c2cc3cc(OCc4ccc(Cl)cc4)ccc3nc2Cl)SC1=S,> 64 µg/mL

# System: Staphylococcus aureus
# Assay: Antibacterial activity against Staphylococcus aureus KCTC 503 after 24 hrs by broth microdilution method
# Format: functional
# Settings: KCTC 503, 24 h
row,Compound,MIC
1,O=C(O)[C@H](Cc1ccccc1)N1C(=O)/C(=C/c2cc3cc(OCc4ccc(F)cc4)ccc3nc2Cl)SC1=S,4 µg/mL
2,CCC(C)[C@@H](C(=O)O)N1C(=O)/C(=C/c2cc3cc(OCc4ccccc4Cl)ccc3nc2Cl)SC1=S (some centres not stated),8 µg/mL
3,Cc1ccc(COc2ccc3nc(Cl)c(/C=C4\SC(=S)N([C@@H](CC(C)C)C(=O)O)C4=O)cc3c2)cc1,8 µg/mL
4,CCC(C)[C@@H](C(=O)O)N1C(=O)/C(=C/c2cc3cc(OCc4ccc(C)cc4)ccc3nc2Cl)SC1=S (some centres not stated),4 µg/mL
5,Cc1ccc(COc2ccc3nc(Cl)c(/C=C4\SC(=S)N([C@@H](Cc5ccccc5)C(=O)O)C4=O)cc3c2)cc1,8 µg/mL
6,CC(C)C[C@@H](C(=O)O)N1C(=O)/C(=C/c2cc3cc(OCc4ccc(Cl)cc4)ccc3nc2Cl)SC1=S,4 µg/mL

# System: Staphylococcus aureus
# Assay: Antibacterial activity against Staphylococcus aureus KCTC 209 after 24 hrs by broth microdilution method
# Format: functional
# Settings: KCTC 209, 24 h
row,Compound,MIC
1,O=C(O)[C@H](Cc1ccccc1)N1C(=O)/C(=C/c2cc3cc(OCc4ccc(F)cc4)ccc3nc2Cl)SC1=S,32 µg/mL
2,CCC(C)[C@@H](C(=O)O)N1C(=O)/C(=C/c2cc3cc(OCc4ccccc4Cl)ccc3nc2Cl)SC1=S (some centres not stated),64 µg/mL
3,Cc1ccc(COc2ccc3nc(Cl)c(/C=C4\SC(=S)N([C@@H](CC(C)C)C(=O)O)C4=O)cc3c2)cc1,8 µg/mL
4,CCC(C)[C@@H](C(=O)O)N1C(=O)/C(=C/c2cc3cc(OCc4ccc(C)cc4)ccc3nc2Cl)SC1=S (some centres not stated),4 µg/mL
5,Cc1ccc(COc2ccc3nc(Cl)c(/C=C4\SC(=S)N([C@@H](Cc5ccccc5)C(=O)O)C4=O)cc3c2)cc1,8 µg/mL
6,CC(C)C[C@@H](C(=O)O)N1C(=O)/C(=C/c2cc3cc(OCc4ccc(Cl)cc4)ccc3nc2Cl)SC1=S,4 µg/mL

# System: Staphylococcus aureus
# Assay: Antibacterial activity against Staphylococcus aureus RN4220 after 24 hrs by broth microdilution method
# Format: functional
# Settings: RN4220, 24 h
row,Compound,MIC
1,O=C(O)[C@H](Cc1ccccc1)N1C(=O)/C(=C/c2cc3cc(OCc4ccc(F)cc4)ccc3nc2Cl)SC1=S,4 µg/mL
2,CCC(C)[C@@H](C(=O)O)N1C(=O)/C(=C/c2cc3cc(OCc4ccccc4Cl)ccc3nc2Cl)SC1=S (some centres not stated),4 µg/mL
3,Cc1ccc(COc2ccc3nc(Cl)c(/C=C4\SC(=S)N([C@@H](CC(C)C)C(=O)O)C4=O)cc3c2)cc1,1 µg/mL
4,CCC(C)[C@@H](C(=O)O)N1C(=O)/C(=C/c2cc3cc(OCc4ccc(C)cc4)ccc3nc2Cl)SC1=S (some centres not stated),2 µg/mL
5,Cc1ccc(COc2ccc3nc(Cl)c(/C=C4\SC(=S)N([C@@H](Cc5ccccc5)C(=O)O)C4=O)cc3c2)cc1,2 µg/mL
6,CC(C)C[C@@H](C(=O)O)N1C(=O)/C(=C/c2cc3cc(OCc4ccc(Cl)cc4)ccc3nc2Cl)SC1=S,1 µg/mL
